Measured values from patent publication US11590076B2, “Cryogel scaffold capable of controlling degree of degradation and soft bio-integrated device in which drug modulating immunosuppressive action in solid microenvironment is loaded in same scaffold” (Research & Business Foundation Sungkyunkwan University, priority 2017, dated 2023).

What was measured:
BMDCs = assay: Activation of BMDCs using gemcitabine-treated 4T1 breast cancer cell line; assay type: cell-based, mouse; conditions: gemcitabine-treated breast cancer cell line versus control, FIG. 31D
Description: (§1) In addition, the activation of BMDCs using a gemcitabine-treated 4T1 breast cancer cell line was confirmed. The 4T1 cells were cultured with 1 μg/mL gemcitabine in a 6-well plate at a density of 2×10^6 cells/well. The gemcitabine-induced apoptosis of the 4T1 breast cancer cells was assessed according to the protocol of the FITC Annexin V Apoptosis kit (BD Biosciences). After 24 hours, a supernatant was collected, and then incubated with BMDCs. A BMDC activation marker was analyzed using an Accuri™ flow cytometer. Antibodies used herein were FITC-anti-CD11c and APC-anti-CD80 (BD Pharmingen).

[1] = In vitro drug release behavior of soft bio-integrated device; assay type: physicochemical; conditions: within one week, PBS (pH 7.4), 37° C., FIG. 31A
Description: A scaffold in which gemcitabine, rhodamine-attached poly(I:C)/nanogel, and a 4T1 cell lysate were loaded was added to 1 mL of PBS (pH 7.4), and stored at 37° C. and 90 rpm. Every selected time interval, the original culture medium was obtained and exchanged with a fresh medium. An amount of gemcitabine released from the scaffold was measured using absorbance (275 nm, UV-1800; Shimadzu, Kyoto, Japan), the rhodamine-attached poly(I:C) was measured according to the protocol of the 5'[…] Nucleic Acid Labeling System (Vector Laboratories), and the 4T1 cell lysate was measured using the BCA assay method (Pierce Biotechnology). Specifically, a fluorescence spectrometer (PerkinElmer) was used to detect and analyze fluorescence at 552 nm (excitation) and 575 nm (emission) from the poly(I:C)/nanogel attached to rhodamine released from the scaffold.

[2] = test system: 4T1 breast cancer cell line; assay: Gemcitabine-induced apoptosis of 4T1 breast cancer cells (FITC Annexin V); assay type: cell-based; conditions: change in gemcitabine concentration, FIG. 31C
Description: as §1, with “The 4T1 cells were cultured with 1 μg/mL gemcitabine in a 6-well plate at a density of 2×10^6 cells/well.” left out

4T1 tumor = assay: In vivo anticancer effect after tumor resection and implantation of soft bio-integrated device; set-up: species or system BALB/c mice; conditions: day 7 and day 14, FIG. 38A
Description: When 1×10^6 4T1 cells were injected and the size of a growing tumor became 300 mm^3 on day 14 after injection, the tumor was partially resected. A mouse was anesthetized using 2,2,2-tribromoethanol. The surgical site was sterilized with 70% ethanol, and 90% of the tumor was resected so that 10% of the tumor remained. A scaffold was implanted near the remaining part of the tumor.
On day 7 and day 14 after tumor removal and implantation of a soft bio-integrated device, a mouse was sacrificed, and a tumor, the spleen and a lymph node of the sacrificed mouse were isolated to measure weights thereof.
The tumor and lymph node were cut into small pieces, dispersed in DMEM containing collagenase D, stored for 1 hour at 37° C. and 90 rpm, and then filtered through a 70-μm strainer. The spleen was physically disrupted, and then RBCs were removed using an RBC lysis buffer. The tumor and spleen dispersed as single cells by the above-described method were analyzed using APC-anti-CD11b and PE-anti-Gr1 antibodies to confirm myeloid-derived-suppressor cells and using APC-anti-CD3, PE-anti-CD4 and FITC-CD8 antibodies to confirm T cells. All antibodies were purchased from BD Pharmingen.
Moreover, to confirm tumor metastasis, on day 14 after the tumor removal, the mouse was sacrificed to confirm metastasis. […]

[3] = test system: myeloid-derived-suppressor cells (MDSCs); assay: Gemcitabine-induced apoptosis of MDSCs (FITC Annexin V); assay type: cell-based, mouse; conditions: various gemcitabine concentrations, FIG. 31B
Description: Gemcitabine induces apoptosis of myeloid-derived-suppressor cells (MDSCs) in vitro. The spleen was extracted from a mouse harboring 4T1 tumors for 28 days, the extracted spleen was ground, and RBCs were removed therefrom using an RBC lysis buffer. The RBC-removed spleen cells were re-dispersed in a MACS buffer (PBS, 0.5% BSA, […]), MDSCs were isolated using an MDSC isolation kit (Miltenyi Biotec). The isolated myeloid-derived-suppressor cells were seeded in a 6-well plate at a density of 2×10^6 cells/well, and incubated with various concentrations of gemcitabine. The gemcitabine-induced apoptosis of the MDSCs was assessed according to the protocol of an FITC Annexin V Apoptosis kit (BD Biosciences).

- accumulation amount of gemcitabine released from the scaffold [1]: approximately 90%
SMILES: Nc1ccn([C@@H]2O[C@H](CO)[C@@H](O)C2(F)F)c(=O)n1 [gemcitabine]
- cell maturity of dendritic cells (BMDCs): increased
- dead cell percentage in breast cancer cell line (4T1) [2]: increased as the gemcitabine concentration increased
- MDSC proportion in the tumor and the spleen (4T1 tumor): reduced
- dead cell percentage of MDSCs [3]: increased as the gemcitabine concentration increased
